From PubChem BioAssay (NCI) come the findings set out here.

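Following 48 hours of exposure in 96-well plates, responses at five concentrations were used to interpolate endpoints linearly. GI50: concentration for 50% inhibition of growth. At the TGI there is no net growth.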 A value given as a limit tells only on which side of the number the result lay.

Test systems include HL-60(TB) leukemia; UACC-62 melanoma; NCI-H23 lung; OVCAR-5 ovarian; NCI-H522 lung; SNB-19 CNS; BT-549 breast; SK-MEL-5 melanoma; OVCAR-4 ovarian; SNB-75 CNS.
Holding throughout (assay): growth of human tumour cells (NCI), 48 h

In the case of `COC1=CC(=O)O/C1=C(\OC)C1OC1c1ccccc1` (stereo not given), the TGI in the test on HL-60(TB) leukemia, in the test with UACC-62 melanoma, with NCI-H23 lung, in the test on OVCAR-5 ovarian, with NCI-H522 lung and in the test with SNB-19 CNS was above 100 µM in each case. Also, the TGI in the test on BT-549 breast, in the test on SK-MEL-5 melanoma and in the test on OVCAR-4 ovarian was above 100 µM in each case.

As for `CCC[CH2][Sn-]([CH2]CCC)([CH2]CCC)[O]C(=O)C(C)C`, the GI50 was 0.111 µM in the test on HL-60(TB) leukemia; 0.2 µM with UACC-62 melanoma; 0.115 µM in the test on NCI-H23 lung; 0.107 µM with OVCAR-5 ovarian; 0.186 µM in the test with SNB-19 CNS; 0.135 µM with BT-549 breast. For the same molecule, the GI50 in the test with SK-MEL-5 melanoma is 0.157 µM; in the test with OVCAR-4 ovarian, 0.0538 µM. For the same molecule, the TGI in the test with HL-60(TB) leukemia was found to be 0.304 µM; in the test on UACC-62 melanoma, 0.424 µM; with NCI-H23 lung it was 0.31 µM; in the test with OVCAR-5 ovarian, 0.262 µM; with SNB-19 CNS, 0.351 µM; with BT-549 breast, 0.312 µM. The TGI stood at 0.291 µM in the test on SK-MEL-5 melanoma and 0.196 µM in the test with OVCAR-4 ovarian.

On to `O=S(=O)(NC1=NCCN1C(=S)SN1CCn2c1nsc2=S)c1ccc(Cl)cc1`, for which the GI50 in the test with SNB-75 CNS is 12.3 µM; with UACC-62 melanoma, 3.68 µM; in the test with NCI-H23 lung it was 14.4 µM; in the test with OVCAR-5 ovarian it was 17.9 µM; in the test on NCI-H522 lung, 4.74 µM; in the test on SNB-19 CNS, 14.5 µM. Further, the GI50 is 2.28 µM in the test on BT-549 breast, 8.99 µM in the test on SK-MEL-5 melanoma and 9.6 µM in the test on OVCAR-4 ovarian. The TGI in the test with SNB-75 CNS came to 35.6 µM; in the test on UACC-62 melanoma it was 13.6 µM; in the test with NCI-H23 lung, 32.6 µM; with OVCAR-5 ovarian, 36.5 µM; in the test with NCI-H522 lung, 18.4 µM; in the test on SNB-19 CNS, 36.4 µM. Further, the figures for the TGI in the test with BT-549 breast, in the test with SK-MEL-5 melanoma and in the test with OVCAR-4 ovarian were 6.48 µM, 21.7 µM and 44.2 µM, respectively.

With `COc1ccc(-c2ccc(C3CC(c4ccccc4)=NN3)o2)c([N+](=O)[O-])c1` (stereo not given), the GI50 is 24.9 µM in the test on HL-60(TB) leukemia; 67.7 µM in the test with UACC-62 melanoma; 39.1 µM with NCI-H23 lung; above 100 µM in the test on OVCAR-5 ovarian; 58.4 µM in the test on NCI-H522 lung; 86.2 µM with SNB-19 CNS. In addition, the GI50 in the test on BT-549 breast is 47.4 µM; with OVCAR-4 ovarian, 43.5 µM. Also, the TGI is 64.8 µM with HL-60(TB) leukemia; above 100 µM in the test on UACC-62 melanoma; above 100 µM in the test on NCI-H23 lung; above 100 µM with OVCAR-5 ovarian; above 100 µM in the test with NCI-H522 lung; above 100 µM in the test with SNB-19 CNS. In addition, the TGI in the test on BT-549 breast and with OVCAR-4 ovarian was above 100 µM throughout.

Consider `O=C(Nc1ccc(Cl)cc1C(F)(F)F)C(=O)Nn1c(=S)[nH]c2ccccc2c1=O`, for which the TGI in the test on HL-60(TB) leukemia, in the test with SNB-75 CNS, with UACC-62 melanoma, in the test with NCI-H23 lung, in the test on OVCAR-5 ovarian and with BT-549 breast was above 100 µM throughout. The TGI with SK-MEL-5 melanoma and with OVCAR-4 ovarian was above 100 µM throughout.

Consider `COc1cc2c(cc1C)NC(=O)/C2=C/c1ccnc2ccccc12`, for which the GI50 in the test with HL-60(TB) leukemia is 30.7 µM; with UACC-62 melanoma, 13.1 µM; in the test with NCI-H23 lung it was 25.5 µM; in the test on OVCAR-5 ovarian, 30 µM; in the test with NCI-H522 lung, 8.35 µM; with SNB-19 CNS, 6.88 µM. Moreover, the GI50 was 29.1 µM with BT-549 breast and 7.89 µM in the test with SK-MEL-5 melanoma. Moreover, the TGI in the test on HL-60(TB) leukemia is above 50 µM; with UACC-62 melanoma, above 50 µM; in the test on NCI-H23 lung it was above 50 µM; with OVCAR-5 ovarian, above 50 µM; with NCI-H522 lung, 41.7 µM; in the test with SNB-19 CNS, 36.3 µM. Further, the TGI with BT-549 breast was above 50 µM; in the test with SK-MEL-5 melanoma, 31.3 µM.

With `CC(C)C[C@@H](N)[C@@H](O)C(=O)N[C@H](C(=O)N[C@H](C(=O)N[C@@H](CC(=O)O)C(=O)O)C(C)C)C(C)C`, the GI50 in the test with SNB-75 CNS, in the test with UACC-62 melanoma, in the test with NCI-H23 lung, in the test on OVCAR-5 ovarian, in the test with NCI-H522 lung and in the test on SNB-19 CNS was above 20 µM in each case. Moreover, the GI50 in the test with BT-549 breast, in the test on SK-MEL-5 melanoma and with OVCAR-4 ovarian was above 20 µM in each case. For the same molecule, the TGI with SNB-75 CNS, in the test on UACC-62 melanoma, with NCI-H23 lung, in the test with OVCAR-5 ovarian, in the test on NCI-H522 lung and with SNB-19 CNS was above 20 µM throughout. Further, the TGI with BT-549 breast, in the test with SK-MEL-5 melanoma and in the test with OVCAR-4 ovarian was above 20 µM each time.

For `COc1cc2c(cc1OCCNC(=O)/C=C1\C[C@H]3C=Nc4cc(OCc5ccccc5)c(OC)cc4C(=O)N3C1)N=C[C@@H]1CCCN1C2=O`, the GI50 in the test with UACC-62 melanoma was 2.65 µM; in the test on NCI-H23 lung it was 9.26 µM; in the test with OVCAR-5 ovarian it was 4.07 µM; with NCI-H522 lung, 1.62 µM; in the test on SNB-19 CNS it was 8.62 µM; in the test on BT-549 breast, 17 µM. Besides, the figures for the GI50 in the test on SK-MEL-5 melanoma and with OVCAR-4 ovarian were 1.3 µM and 19.7 µM, respectively. The TGI in the test with UACC-62 melanoma is 9.92 µM; in the test on NCI-H23 lung it was 27 µM; in the test on OVCAR-5 ovarian, 26.3 µM; in the test with NCI-H522 lung, 3.88 µM; in the test with SNB-19 CNS it was above 100 µM; in the test with BT-549 breast, above 100 µM. Further, the TGI in the test on SK-MEL-5 melanoma was 20.8 µM; in the test with OVCAR-4 ovarian, 65.5 µM.

`Cc1n[nH]c2ccccc2c1=O`: the TGI in the test on SNB-75 CNS, in the test on UACC-62 melanoma, with NCI-H23 lung, in the test with OVCAR-5 ovarian, in the test with NCI-H522 lung and in the test with SNB-19 CNS was above 100 µM in each case. In addition, the TGI in the test on BT-549 breast, in the test on SK-MEL-5 melanoma and in the test with OVCAR-4 ovarian was above 100 µM throughout.

For `O=c1c(Cc2ccc3c(c2)OCO3)nnc2sc(-c3cc(F)c(Cl)cc3Cl)nn12`, the GI50 was 28.5 µM with SNB-75 CNS; 75.8 µM in the test on UACC-62 melanoma; 82.5 µM with NCI-H23 lung; 46.6 µM in the test with OVCAR-5 ovarian; 33.4 µM with NCI-H522 lung; 34.3 µM in the test with SNB-19 CNS. Further, the GI50 was 27.4 µM in the test with BT-549 breast, 19.3 µM with SK-MEL-5 melanoma and 59.2 µM in the test on OVCAR-4 ovarian. Besides, the TGI in the test on SNB-75 CNS, in the test with UACC-62 melanoma, in the test on NCI-H23 lung, in the test with OVCAR-5 ovarian, with NCI-H522 lung and with SNB-19 CNS was above 100 µM each time. Further, the values for the TGI in the test with BT-549 breast, in the test with SK-MEL-5 melanoma and with OVCAR-4 ovarian were 56 µM, 50.7 µM and above 100 µM, respectively.

On to `Cc1cccc(N2C(=O)/C(=C/C(Cl)=C/c3ccc([N+](=O)[O-])cc3)SC2=S)c1C`, for which the GI50 is 1.91 µM in the test with HL-60(TB) leukemia; 1.7 µM with UACC-62 melanoma; 1.84 µM with NCI-H23 lung; 2.43 µM in the test with OVCAR-5 ovarian; 2.18 µM with NCI-H522 lung; 2.9 µM in the test on SNB-19 CNS. Also, the GI50 in the test on BT-549 breast is 1.61 µM; in the test with SK-MEL-5 melanoma, 1.49 µM; in the test on OVCAR-4 ovarian, 1.46 µM. The TGI with HL-60(TB) leukemia is 6.94 µM; in the test on UACC-62 melanoma, 3.86 µM; with NCI-H23 lung it was 4.38 µM; in the test on OVCAR-5 ovarian, 5.67 µM; in the test on NCI-H522 lung, 5.58 µM; with SNB-19 CNS, above 100 µM. For the same molecule, the TGI in the test on BT-549 breast was 4.08 µM; in the test with SK-MEL-5 melanoma, 2.91 µM; in the test on OVCAR-4 ovarian it was above 100 µM.

As to `COc1cc2c(/C=C3\C(=O)Nc4ccccc43)c[nH]c2cc1C`, the GI50 was 0.494 µM in the test on HL-60(TB) leukemia; 0.0775 µM in the test on UACC-62 melanoma; 0.0115 µM with NCI-H23 lung; 0.62 µM in the test with OVCAR-5 ovarian; 0.833 µM in the test on NCI-H522 lung; 0.112 µM with SNB-19 CNS. For the same molecule, the GI50 with BT-549 breast was 0.294 µM; in the test on SK-MEL-5 melanoma it was below 0.015 µM. Besides, the TGI in the test with HL-60(TB) leukemia was 4.45 µM; in the test on UACC-62 melanoma, 7.43 µM; with NCI-H23 lung it was 0.0719 µM; in the test on OVCAR-5 ovarian, 19.1 µM; in the test with NCI-H522 lung, above 35.3 µM; in the test on SNB-19 CNS, 32.3 µM. In addition, the TGI in the test on BT-549 breast turned out to be 15.8 µM; with SK-MEL-5 melanoma, 1.89 µM.

`COc1ccc(-c2nc3ccccc3s2)cc1OC`: the TGI with HL-60(TB) leukemia was above 100 µM; in the test with SNB-75 CNS it was above 100 µM; with UACC-62 melanoma, above 100 µM; with NCI-H23 lung, above 100 µM; in the test with OVCAR-5 ovarian, above 100 µM; in the test with SNB-19 CNS, 28.3 µM. Moreover, the figures for the TGI in the test on BT-549 breast, with SK-MEL-5 melanoma and in the test with OVCAR-4 ovarian were 57.6 µM, 39.1 µM and above 100 µM, respectively.

Consider `Cc1cccc(C)c1NC(=O)C(=O)Cc1nc2ccccc2s1`, for which the TGI in the test with HL-60(TB) leukemia, with SNB-75 CNS, with UACC-62 melanoma, in the test with NCI-H23 lung, with OVCAR-5 ovarian and with NCI-H522 lung was above 100 µM in each case. Besides, the TGI in the test on SNB-19 CNS, in the test on SK-MEL-5 melanoma and with OVCAR-4 ovarian was above 100 µM each time.

As for `C1=CC(=P(c2ccccc2)(c2ccccc2)c2ccccc2)C=C1`, the TGI in the test with HL-60(TB) leukemia was found to be 9.01 µM; in the test on SNB-75 CNS, 20.8 µM; in the test with UACC-62 melanoma, 20 µM; with NCI-H23 lung, 54.3 µM; in the test on OVCAR-5 ovarian it was 28.6 µM; with NCI-H522 lung, 10.1 µM. The figures for the TGI in the test on SNB-19 CNS, with SK-MEL-5 melanoma and with OVCAR-4 ovarian were 31.6 µM, 30.3 µM and 31.5 µM, respectively.
